From publication PMC3154012 (Journal of the American Chemical Society, 2011)

Legend:
[1] = target: T1, Mn-BM3h (wild-type cytochrome P450 BM3 heme domain) (Priestia megaterium, UniProt P14779); assay: optical absorbance titration; format: binding
T1 sequence (P14779 2-464 limits assumed): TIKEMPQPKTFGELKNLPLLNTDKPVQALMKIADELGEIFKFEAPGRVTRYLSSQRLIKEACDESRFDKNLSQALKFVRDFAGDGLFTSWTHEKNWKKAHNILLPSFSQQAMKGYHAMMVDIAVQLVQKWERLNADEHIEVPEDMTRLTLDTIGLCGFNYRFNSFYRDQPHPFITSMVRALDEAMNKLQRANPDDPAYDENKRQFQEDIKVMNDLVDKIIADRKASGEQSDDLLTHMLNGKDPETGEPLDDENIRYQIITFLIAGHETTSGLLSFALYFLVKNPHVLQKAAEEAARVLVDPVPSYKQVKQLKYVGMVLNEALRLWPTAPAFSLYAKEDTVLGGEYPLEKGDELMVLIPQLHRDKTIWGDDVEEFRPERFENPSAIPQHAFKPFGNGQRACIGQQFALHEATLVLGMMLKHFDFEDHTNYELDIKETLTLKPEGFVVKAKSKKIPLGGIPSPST

[2] = target: Mn-C1634 (thermostable chimeric P450 heme domain C1634); assay: optical absorbance titration, two-component binding fit; design: species or system Priestia megaterium; Bacillus subtilis; conditions: Mn(III)-PPIX in place of heme; PBS; 5 μM protein

Question: Which Kd [1] does the source give for `CCCCC/C=C\C/C=C\C/C=C\C/C=C\CCCC(=O)O` [AA, arachidonic acid] here?
Answer: 0.7 ± 0.5 µM

Question: And the Kd [2]?
Answer: 2.5 ± 0.7 µM
